From PubChem BioAssay (NCI)
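Each compound was tested at five concentrations against cells in 96-well plates for 48 hours. TGI is the concentration that stops growth completely.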

Experiments:
Experiment in all cases: growth of human tumour cells (NCI), 48 h
786-0 renal = system: 786-0 renal
A498 renal = system: A498 renal
A549 NSCLC = system: A549 NSCLC
ACHN renal = system: ACHN renal
CAKI-1 renal = system: CAKI-1 renal
CCRF-CEM leukemia = system: CCRF-CEM leukemia
COLO 205 colon = system: COLO 205 colon
DLD-1 colon = system: DLD-1 colon
DMS 114 small cell lung = system: DMS 114 small cell lung
DMS 273 small cell lung = system: DMS 273 small cell lung
EKVX NSCLC = system: EKVX NSCLC
HCC-2998 colon = system: HCC-2998 colon
HCT-116 colon = system: HCT-116 colon
HCT-15 colon = system: HCT-15 colon
HL-60(TB) leukemia = system: HL-60(TB) leukemia
HOP-18 NSCLC = system: HOP-18 NSCLC
HOP-62 NSCLC = system: HOP-62 NSCLC
HOP-92 NSCLC = system: HOP-92 NSCLC
HT29 colon = system: HT29 colon
IGROV1 ovarian = system: IGROV1 ovarian
K-562 leukemia = system: K-562 leukemia
KM12 colon = system: KM12 colon
KM20L2 colon = system: KM20L2 colon
LOX IMVI melanoma = system: LOX IMVI melanoma
LXFL 529 NSCLC = system: LXFL 529 NSCLC
M14 melanoma = system: M14 melanoma
MALME-3M melanoma = system: MALME-3M melanoma
MOLT-4 leukemia = system: MOLT-4 leukemia
NCI-H226 lung = system: NCI-H226 lung
NCI-H23 lung = system: NCI-H23 lung
NCI-H460 lung = system: NCI-H460 lung
NCI-H522 lung = system: NCI-H522 lung
OVCAR-3 ovarian = system: OVCAR-3 ovarian
OVCAR-4 ovarian = system: OVCAR-4 ovarian
OVCAR-5 ovarian = system: OVCAR-5 ovarian
OVCAR-8 ovarian = system: OVCAR-8 ovarian
RXF 393 renal = system: RXF 393 renal
SF-268 CNS = system: SF-268 CNS
SF-295 CNS = system: SF-295 CNS
SF-539 CNS = system: SF-539 CNS
SK-MEL-2 melanoma = system: SK-MEL-2 melanoma
SK-MEL-28 melanoma = system: SK-MEL-28 melanoma
SK-MEL-5 melanoma = system: SK-MEL-5 melanoma
SK-OV-3 ovarian = system: SK-OV-3 ovarian
SN12C renal = system: SN12C renal
SNB-19 CNS = system: SNB-19 CNS
SNB-75 CNS = system: SNB-75 CNS
SNB-78 CNS = system: SNB-78 CNS
SR leukemia = system: SR leukemia
SW-620 colon = system: SW-620 colon
TK-10 renal = system: TK-10 renal
U251 CNS = system: U251 CNS
UACC-257 melanoma = system: UACC-257 melanoma
UACC-62 melanoma = system: UACC-62 melanoma
UO-31 renal = system: UO-31 renal
M19-MEL melanoma = system: M19-MEL melanoma
RPMI-8226 leukemia = system: RPMI-8226 leukemia

## Cc1ccc(Oc2ccc(C(=O)c3cccc(C(=O)c4ccc(Oc5ccc(C)cc5)cc4)n3)cc2)cc1
786-0 renal
  TGI: > 100 µM
A498 renal
  TGI: > 100 µM
A549 NSCLC
  TGI: > 100 µM
ACHN renal
  TGI: > 100 µM
CAKI-1 renal
  TGI: > 100 µM
CCRF-CEM leukemia
  TGI: > 100 µM
COLO 205 colon
  TGI: > 100 µM
DLD-1 colon
  TGI: > 100 µM
DMS 114 small cell lung
  TGI: > 100 µM
DMS 273 small cell lung
  TGI: > 100 µM
EKVX NSCLC
  TGI: > 100 µM
HCC-2998 colon
  TGI: > 100 µM
HCT-116 colon
  TGI: > 100 µM
HCT-15 colon
  TGI: > 100 µM
HL-60(TB) leukemia
  TGI: > 100 µM
HOP-18 NSCLC
  TGI: > 100 µM
HOP-62 NSCLC
  TGI: > 100 µM
HOP-92 NSCLC
  TGI: > 100 µM
HT29 colon
  TGI: > 100 µM
IGROV1 ovarian
  TGI: > 100 µM
K-562 leukemia
  TGI: > 100 µM
KM12 colon
  TGI: > 100 µM
KM20L2 colon
  TGI: > 100 µM
LOX IMVI melanoma
  TGI: > 100 µM
LXFL 529 NSCLC
  TGI: > 100 µM
M14 melanoma
  TGI: > 100 µM
MALME-3M melanoma
  TGI: > 100 µM
MOLT-4 leukemia
  TGI: > 100 µM
NCI-H226 lung
  TGI: > 100 µM
NCI-H23 lung
  TGI: > 100 µM
NCI-H460 lung
  TGI: > 100 µM
NCI-H522 lung
  TGI: > 100 µM
OVCAR-3 ovarian
  TGI: > 100 µM
OVCAR-4 ovarian
  TGI: > 100 µM
OVCAR-5 ovarian
  TGI: > 100 µM
OVCAR-8 ovarian
  TGI: > 100 µM
RXF 393 renal
  TGI: > 100 µM
SF-268 CNS
  TGI: > 100 µM
SF-295 CNS
  TGI: > 100 µM
SF-539 CNS
  TGI: > 100 µM
SK-MEL-2 melanoma
  TGI: > 100 µM
SK-MEL-28 melanoma
  TGI: > 100 µM
SK-MEL-5 melanoma
  TGI: > 100 µM
SK-OV-3 ovarian
  TGI: > 100 µM
SN12C renal
  TGI: > 100 µM
SNB-19 CNS
  TGI: > 100 µM
SNB-75 CNS
  TGI: > 100 µM
SNB-78 CNS
  TGI: > 100 µM
SR leukemia
  TGI: > 100 µM
SW-620 colon
  TGI: > 100 µM
TK-10 renal
  TGI: > 100 µM
U251 CNS
  TGI: > 100 µM
UACC-257 melanoma
  TGI: > 100 µM
UACC-62 melanoma
  TGI: > 100 µM
UO-31 renal
  TGI: > 100 µM

## N/N=C(\CCN1CCCC1)CC(c1ccccc1)c1c(O)c2ccccc2oc1=O (configuration not stated)
786-0 renal
  TGI: > 100 µM
A549 NSCLC
  TGI: > 100 µM
ACHN renal
  TGI: > 100 µM
CAKI-1 renal
  TGI: > 100 µM
CCRF-CEM leukemia
  TGI: > 100 µM
COLO 205 colon
  TGI: > 100 µM
DLD-1 colon
  TGI: > 100 µM
DMS 114 small cell lung
  TGI: > 100 µM
DMS 273 small cell lung
  TGI: > 100 µM
EKVX NSCLC
  TGI: > 100 µM
HCC-2998 colon
  TGI: > 100 µM
HCT-116 colon
  TGI: > 100 µM
HCT-15 colon
  TGI: > 100 µM
HL-60(TB) leukemia
  TGI: > 100 µM
HOP-18 NSCLC
  TGI: > 100 µM
HOP-62 NSCLC
  TGI: > 100 µM
HOP-92 NSCLC
  TGI: > 100 µM
HT29 colon
  TGI: > 100 µM
IGROV1 ovarian
  TGI: > 100 µM
K-562 leukemia
  TGI: > 100 µM
KM12 colon
  TGI: > 100 µM
KM20L2 colon
  TGI: > 100 µM
LOX IMVI melanoma
  TGI: > 100 µM
LXFL 529 NSCLC
  TGI: > 100 µM
M14 melanoma
  TGI: > 100 µM
M19-MEL melanoma
  TGI: > 100 µM
MALME-3M melanoma
  TGI: > 100 µM
MOLT-4 leukemia
  TGI: > 100 µM
NCI-H226 lung
  TGI: > 100 µM
NCI-H23 lung
  TGI: > 100 µM
NCI-H460 lung
  TGI: > 100 µM
NCI-H522 lung
  TGI: > 100 µM
OVCAR-3 ovarian
  TGI: > 100 µM
OVCAR-4 ovarian
  TGI: > 100 µM
OVCAR-5 ovarian
  TGI: > 100 µM
OVCAR-8 ovarian
  TGI: > 100 µM
RPMI-8226 leukemia
  TGI: > 100 µM
RXF 393 renal
  TGI: > 100 µM
SF-268 CNS
  TGI: > 100 µM
SF-295 CNS
  TGI: > 100 µM
SF-539 CNS
  TGI: > 100 µM
SK-MEL-2 melanoma
  TGI: > 100 µM
SK-MEL-28 melanoma
  TGI: > 100 µM
SK-MEL-5 melanoma
  TGI: > 100 µM
SK-OV-3 ovarian
  TGI: > 100 µM
SN12C renal
  TGI: > 100 µM
SNB-19 CNS
  TGI: > 100 µM
SNB-75 CNS
  TGI: > 100 µM
SNB-78 CNS
  TGI: > 100 µM
SR leukemia
  TGI: > 100 µM
SW-620 colon
  TGI: > 100 µM
TK-10 renal
  TGI: > 100 µM
U251 CNS
  TGI: > 100 µM
UACC-257 melanoma
  TGI: > 100 µM
UACC-62 melanoma
  TGI: > 100 µM

## COc1cc2c(cc1O)[C@@]1(Cc3ccc(OC)c(OC)c3)CCC(=O)N1CC2
786-0 renal
  TGI: > 100 µM
A498 renal
  TGI: > 100 µM
A549 NSCLC
  TGI: > 100 µM
ACHN renal
  TGI: > 100 µM
CAKI-1 renal
  TGI: > 100 µM
CCRF-CEM leukemia
  TGI: > 100 µM
COLO 205 colon
  TGI: > 100 µM
DLD-1 colon
  TGI: > 100 µM
DMS 114 small cell lung
  TGI: > 100 µM
DMS 273 small cell lung
  TGI: > 100 µM
EKVX NSCLC
  TGI: > 100 µM
HCC-2998 colon
  TGI: > 100 µM
HCT-116 colon
  TGI: > 100 µM
HCT-15 colon
  TGI: > 100 µM
HL-60(TB) leukemia
  TGI: > 100 µM
HOP-18 NSCLC
  TGI: > 100 µM
HOP-62 NSCLC
  TGI: > 100 µM
HOP-92 NSCLC
  TGI: 92.4 µM
HT29 colon
  TGI: > 100 µM
IGROV1 ovarian
  TGI: > 100 µM
K-562 leukemia
  TGI: > 100 µM
KM12 colon
  TGI: > 100 µM
KM20L2 colon
  TGI: > 100 µM
LOX IMVI melanoma
  TGI: > 100 µM
LXFL 529 NSCLC
  TGI: > 100 µM
M14 melanoma
  TGI: > 100 µM
M19-MEL melanoma
  TGI: > 100 µM
MALME-3M melanoma
  TGI: > 100 µM
MOLT-4 leukemia
  TGI: > 100 µM
NCI-H226 lung
  TGI: > 100 µM
NCI-H23 lung
  TGI: > 100 µM
NCI-H460 lung
  TGI: > 100 µM
OVCAR-3 ovarian
  TGI: > 100 µM
OVCAR-4 ovarian
  TGI: > 100 µM
OVCAR-5 ovarian
  TGI: > 100 µM
OVCAR-8 ovarian
  TGI: > 100 µM
RPMI-8226 leukemia
  TGI: > 100 µM
RXF 393 renal
  TGI: > 100 µM
SF-268 CNS
  TGI: > 100 µM
SF-295 CNS
  TGI: > 100 µM
SF-539 CNS
  TGI: > 100 µM
SK-MEL-28 melanoma
  TGI: > 100 µM
SK-MEL-5 melanoma
  TGI: > 100 µM
SN12C renal
  TGI: > 100 µM
SNB-19 CNS
  TGI: > 100 µM
SNB-75 CNS
  TGI: > 100 µM
SNB-78 CNS
  TGI: > 100 µM
SR leukemia
  TGI: > 100 µM
TK-10 renal
  TGI: > 100 µM
UACC-257 melanoma
  TGI: > 100 µM
UACC-62 melanoma
  TGI: > 100 µM
UO-31 renal
  TGI: > 100 µM
